Experimental data taken from publication PMC11292009, “Mapping protein binding sites by photoreactive fragment pharmacophores” (Communications Chemistry, 2024).

Columns and labels:
Format in all cases: binding
myoglobin (Myo) = assay: Intact protein MS photoaffinity labeling screen, myoglobin; settings: intact protein MS after 10 min irradiation
Summary of the method: (§1)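 In a single-fragment-per-well plate, protein was exposed to fragment for 15 min before direct intact-mass analysis; labeled protein was identified by the corresponding mass increase.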

lysozyme (Lyo) = assay: Intact protein MS photoaffinity labeling screen, lysozyme; settings: intact protein MS after 10 min irradiation
Summary of the method: as §1

STAT5B-NTD [1] = test system: T1, STAT5B-NTD; assay: Intact MS labeling screen, STAT5B-NTD conjugated with photocatalyst Ir-G2-PEG3-COOH (450 nm); settings: 450 nm 10 min;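 further: 0.14 µL of 100 mM DMSO fragment stock added to the conjugate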
T1 construct: His-SUMO (N, cleaved yes); made in house; host or cells: E. coli BL21 RILP
Summary of the method: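 Ir-G2-PEG3-COOH photocatalyst (10 eq) activated 30 min with EDC/NHS/BOP, then conjugated to STAT5B-NTD (7 µM) overnight at RT or 1 h at 37 °C in dark. PhP added, 1 h dark, then 450 nm irradiation 10 min at 4 °C; labeling read by intact LC-MS, positive ion mode, m/z 100–2000.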

[2] = test system: carbonic anhydrase II (CA); assay: Intact protein MS photoaffinity labeling screen, carbonic anhydrase; settings: intact protein MS after 10 min irradiation
Summary of the method: as §1

STAT5B-NTD [3] = test system: T1, STAT5B-NTD; assay: Intact MS photoaffinity labeling screen, STAT5B-NTD (365 nm, UHPLC-MS); settings: for MS labeling percentage, STAT5B: STAT5B-NTD, 365 nm 10 min, no photocatalyst;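 on MS labeling percentage, STAT5B: 0.17 µL of 100 mM DMSO fragment stock added to the protein sample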
Summary of the method: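 Intact-protein labeling detected by UHPLC-MS in positive ion mode over m/z 100–2000. Samples were first photo-crosslinked at 365 nm for 10 min at 4 °C. Before irradiation, 7 µM STAT5B in PBS pH 7.4 was pre-incubated with probe for 1 h in the dark at room temperature.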

BRD4-BD1 = test system: T2, BRD4-BD1; assay: Intact MS photoaffinity labeling screen, BRD4-BD1 (302 nm, LCMS-TOF); settings: for MS labeling percentage, BRD4: BRD4-BD1, 302 nm 10 min
T2 construct: screened the PhP library against the first bromodomain of BRD4 (BRD4-BD1); purchased GSK/GenScript
Summary of the method: (§2)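 Labeling detected as mass additions in deconvoluted intact-protein LCMS-TOF spectra. Protein at 1 μM in PBS was first mixed with one fragment per well on ice for 15 min, followed by 10 min UV exposure at 302 nm.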

KRas^G12D = test system: T3, KRas^G12D; assay: Intact MS photoaffinity labeling screen, KRas G12D (302 nm, LCMS-TOF); settings: for MS labeling percentage, KRas: KRas G12D, 302 nm 10 min
T3 construct: purchased GSK/GenScript
Summary of the method: as §2

[4] = sheet PhP, experimental hit status flag given as 0 or 1
[5] = PhP library sheet "PhP", binary flag printed as 0 or 1, key not given

Row | SMILES | MS labeling percentage, CA [2] [%] | MS labeling percentage, Myo (myoglobin (Myo)) [%] | MS labeling percentage, Lyo (lysozyme (Lyo)) [%] | MS labeling percentage, STAT5B+photocat (STAT5B-NTD [1]) [%] | MS labeling percentage, STAT5B (STAT5B-NTD [3]) [%] | STAT5B-NTD (experimental hit status) (STAT5B-NTD [3]; [4]) | MS labeling percentage, BRD4 (BRD4-BD1) [%] | BRD4-BD1 (experimental hit status) (BRD4-BD1; [4]) | MS labeling percentage, KRas (KRas^G12D) [%] | KRAS-G12D (experimental hit status) (KRas^G12D; [4]) | STAT5B-NTD (experimental hit status) (STAT5B-NTD [3]; [5]) | BRD4-BD1 (experimental hit status) (BRD4-BD1; [5]) | KRAS-G12D (experimental hit status) (KRas^G12D; [5])
1 | COc1nc(C)cc(C)c1CNC(=O)CCC1(C)N=N1 [PhP068, COc1nc(C)cc(C)c1CNC(=O)CCC2(C)N=N2] | 0.3 | 0.4 | 0 | 4.4 | 1 | 0 | 1 | 0 | 0 | 0 |  |  | 
2 | C[C@@H](NC(=O)CCC1(C)N=N1)[C@@H](O)c1cccc(O)c1 [PhP070, Oc(c1)cccc1[C@H](O)[C@@H](C)NC(=O)CCC2(C)N=N2] | 0 | 0.1 | 1 | 4.2 | 1 | 0 | 0.3 | 0 | 0 | 0 |  |  | 
3 | Cc1nc2ccccc2n1CCNC(=O)CCC1(C)N=N1 [PhP073, c1cccc(c12)n(c(n2)C)CCNC(=O)CCC3(C)N=N3] | 0 | 0.2 | 0 | 1.6 | 1 | 0 | 0.3 | 0 | 0.1 | 0 |  |  | 
4 | CC1(CCC(=O)Nc2ccc3c(c2)NC(=O)CC3)N=N1 [PhP075, N1=NC1(C)CCC(=O)Nc(cc2)cc(c23)NC(=O)CC3] | 0.2 | 0.1 | 0 | 0.5 | 2 | 0 | 1.3 | 0 | 0.2 | 0 |  |  | 
5 | CC1CN(Cc2ccccc2NC(=O)CCC2(C)N=N2)CC(C)O1 (centres unmarked) [PhP078, CC1CN(CC(O1)C)Cc2ccccc2NC(=O)CCC3(C)N=N3] | 0.4 | 0.2 | 0 | 0.7 | 0 |  | 0.4 |  | 0 |  | 0 | 0 | 0

Continued, in another order:

Row | MS labeling percentage, CA [2] [%] | SMILES | MS labeling percentage, Myo (myoglobin (Myo)) [%] | MS labeling percentage, Lyo (lysozyme (Lyo)) [%] | MS labeling percentage, STAT5B+photocat (STAT5B-NTD [1]) [%] | MS labeling percentage, STAT5B (STAT5B-NTD [3]) [%] | STAT5B-NTD (experimental hit status) (STAT5B-NTD [3]; [4]) | MS labeling percentage, BRD4 (BRD4-BD1) [%] | BRD4-BD1 (experimental hit status) (BRD4-BD1; [4]) | MS labeling percentage, KRas (KRas^G12D) [%] | KRAS-G12D (experimental hit status) (KRas^G12D; [4]) | STAT5B-NTD (experimental hit status) (STAT5B-NTD [3]; [5]) | BRD4-BD1 (experimental hit status) (BRD4-BD1; [5]) | KRAS-G12D (experimental hit status) (KRas^G12D; [5])
6 | 0.2 | CC1(CCC(=O)NCCCc2nc3ccccc3[nH]2)N=N1 [PhP069, N1=NC1(C)CCC(=O)NCCCc(n2)[nH]c(c23)cccc3] | 0.2 | 0 | 0.8 | 1 | 0 | 1.5 | 0 | 0.5 | 0 |  |  | 
7 | 0.7 | COc1cc(C)nc(NC(=O)CCC2(C)N=N2)n1 [PhP074, COc1cc(C)nc(n1)NC(=O)CCC2(C)N=N2] | 0.4 | 0 | 1.8 | 1 | 0 | 0.4 | 0 | 0.4 | 0 |  |  | 
8 | 0.1 | CCc1cc(NC(=O)CCC2(C)N=N2)nc(C)n1 [PhP076, CCc1cc(nc(n1)C)NC(=O)CCC2(C)N=N2] | 0.2 | 0 | 3.2 | 2 | 0 | 0.9 | 0 | 0.2 | 0 |  |  | 
